Entries after “also recorded” stand apart in the source; their conditions may differ. Values belong to the molecule of their own block, whether it stands above or below them.
Assays:
EGFR = target: T1, EGFR (Mus musculus, UniProt Q01279); test: EGFR phosphorylation by immunoprecipitation / western blotting in endothelial cells; format: cell-based; details: for ligand-induced EGFR phosphorylation / activation: serum starved A375SM tumor EC, ligand 100 ng/ml
T1 construct: endogenous in cells; host or cells: mouse tumour EC isolated from A375SM melanoma, MDA-MB-231 breast carcinoma and liposarcoma xenografts; mouse skin EC as control
Procedure: Immunoprecipitation (IP) and western blotting (WB). […] Cells were also treated with the EGFR kinase inhibitor, AG1478 (Calbiochem, San Diego, Calif.), prepared in DMSO, fifteen minutes prior to growth factor stimulation. Immunoprecipitation (IP) and western blotting (WB) were performed as previously described (16). […] Receptor phosphorylation was detected using anti-phosphotyrosine antibody (mAb 4G10; Upstate, Lake Placid, N.Y.). […] In addition antibodies to GAPDH (Chemicon, Temecula, Calif.), (β-Actin (Sigma-Aldrich, St Louis, Mo.), phospho-Erk1-2 (New England Biolab, Beverly Mass.), and Erk1 (Santa Cruz Biotechnology) were purchased.

[1] = tested on: A375SM melanoma xenograft; test: A375SM melanoma xenograft model in nude mice; format: in vivo, mouse; details: EGFR-negative A375SM xenografts in mice, daily treatment, 4 weeks
Procedure: A375SM melanoma tumor cells were injected subcutaneously into nude mice. When the tumors reached an average volume of 200 mm^3 the mice were randomized into a control and Iressa treatment groups. The mice were treated daily p.o. with gefitinib (150 mg/kg) or with the vehicle. Tumor volumes were measured every 4 days.

[2] = tested on: A375SM tumor EC (melanoma EC); test: MTT cell proliferation assay, tumor EC; format: cell-based, mouse
Procedure: (§1) Cell proliferation. Cells (4×103) were plated in triplicates into 96 well plates and allowed to adhere overnight. The cells were then switched to serum free media containing growth factors and/or AG1478 at indicated concentrations. Cells were cultured for 72 hr and cell proliferation was determined by addition of 0.42 mg/ml of 3-(4,5-dimethylthiazol-2-yl)-2,5-diphenyltetrazolium bromide (MTT) reagent (Sigma-Aldrich) for 4 hr prior to harvesting. Media was removed and cells were solubilized in DMSO and absorbance was measured at 570 nm. The averages of the triplicates were calculated and cell proliferation was determined as the percentage of absorbance of treated cells to the untreated cells. All the experiments were at least performed twice.

[3] = target: ErbB3 on mouse skin endothelial cells (skin EC) (mouse) (UniProt Q61526); test: cell-based or functional assay
skin EC = test: MTT cell proliferation assay, skin EC; format: cell-based, mouse; details: increasing EGF
Procedure: as §1

ErbB2 = ErbB2 phosphorylation by immunoprecipitation / western blotting in endothelial cells; format: cell-based, mouse
Procedure: (§2) Immunoprecipitation (IP) and western blotting (WB). […] Cells were also treated with the EGFR kinase inhibitor, AG1478 (Calbiochem, San Diego, Calif.), prepared in DMSO, fifteen minutes prior to growth factor stimulation. Immunoprecipitation (IP) and western blotting (WB) were performed as previously described (16). The antibodies used for IP and WB of ErbB1-4 were: SC-03, SC-284, SC-285, and SC-283 respectively (Santa Cruz Biotechnology, Santa Cruz, Calif.). Receptor phosphorylation was detected using anti-phosphotyrosine antibody (mAb 4G10; Upstate, Lake Placid, N.Y.). Analysis of phosphorylated—EGFR on lysates was performed using phospho-1068 EGFR (Cell Signaling Technologies, Beverly Mass.). In addition antibodies to GAPDH (Chemicon, Temecula, Calif.), (β-Actin (Sigma-Aldrich, St Louis, Mo.), phospho-Erk1-2 (New England Biolab, Beverly Mass.), and Erk1 (Santa Cruz Biotechnology) were purchased.

Erk1/2 = Erk1/2 (MAPK) phosphorylation by western blotting in endothelial cells; format: cell-based, mouse
Procedure: as §2

Molecule: COc1cc2ncnc(Nc3ccc(F)c(Cl)c3)c2cc1OCCCN1CCOCC1 [Iressa, Gefitinib]
effect on tumor growth (in words) [1]: inhibits EGFR negative A375SM melanoma xenograph growth
effect on tumor growth (in words) ([1]; listed as geftinib): effective against EGFR-negative tumors in mice

Molecule: COc1cc2ncnc(Nc3cccc(Cl)c3)c2cc1OC [AG1478, 4-(3-Chloroanillino)-6,7-dimethoxyquinazoline, reference compound]
inhibition of EGF-induced increase in tumor EC cell proliferation ([2]; inhibitor at 1 μM, increasing EGF, MTT 72 hr): completely inhibit
inhibition of EGF-induced tumor EC proliferation ([2]; tumor (melanoma) EC, concentration not stated / dose dependent): completely inhibits EGF dependent proliferation
effect on EGF-induced phosphorylation of EGFR (EGFR; skin EC, inhibitor pretreatment, then EGF 100 ng/ml): had no effect on skin EC
inhibition of EGF-induced phosphorylation of EGFR (EGFR; tumor EC (A375SM melanoma EC), inhibitor pretreatment, then EGF 100 ng/ml): inhibited EGF-induced phosphorylation of EGFR in tumor EC in a dose-dependent manner; also recorded: inhibits EGFR activation on melanoma EC

Molecule: HB-EGF: Heparin binding-EGF like growth factor, binds EGFR and ErbB4
ligand-induced EGFR phosphorylation / activation (EGFR): promoted EGFR activation in tumor EC

Molecule: EGF: epidermal growth factor, ligand that binds only to EGFR
effect on cell proliferation (in words) (skin EC): did not respond to EGF
increase in cell proliferation ([2]; tumor EC, 20 ng/ml of EGF, MTT): 2.5 fold
effect on cell proliferation (in words) ([2]; tumor EC, increasing EGF, MTT): dose-dependent increase in cell proliferation
EGF-induced ErbB2 phosphorylation (p-ErbB2) (ErbB2; A375SM tumor EC): increased ErbB2 phosphorylation (p-ErbB2) in tumor EC
ErbB2 activation in response to EGF (ErbB2; MDA-MB-231 breast carcinoma EC): ErbB2 was also activated
ErbB2 activation in response to EGF (ErbB2; liposarcoma EC): ErbB2 was also activated
phospho-Erk1/2 levels in the presence of EGF (Erk1/2; A375SM tumor EC): increase in phospho-Erk1/2 levels
MAPK activation by EGF (Erk1/2; MDA-MB-231 breast carcinoma EC): subsequent MAPK activation
MAPK activation by EGF (Erk1/2; liposarcoma EC): subsequent MAPK activation

Now from value to molecule:

ligand-induced EGFR phosphorylation / activation (EGFR): promoted EGFR activation in tumor EC
Molecule: BTC: betacellulin, binds EGFR and ErbB4

ligand-induced EGFR phosphorylation / activation (EGFR): promoted EGFR activation in tumor EC
Molecule: TGFα: transforming growth factor-alpha, EGFR ligand

growth inhibition (MTT assay) of skin EC at 5 ng/ml (0.2 nM) NRG1β [3]: 25%
Molecule: NRG1β extra-cellular domain (R&D Systems) (ligand)
